Results: patent US20230416782A1, “ENHANCED NANOPARTICLE DELIVERY SYSTEMS” (Children's Hospital Medical Center, priority 2020, published 2023)

What was measured:
hCFTR gene transfer = experiment: in vivo hCFTR gene transfer by DNP with drug (CFTR expression, PCR); design: species or system mice; settings: 2, 4 and 7 days post-DNP administration; versus DNP alone
Excerpt: FIG. 16. Gene transfer of hCFTR is enhanced by pharmacologic manipulation of interactome proteins. DMP alone, RX001 (roscovitine), and RX008 (ruxolitinib), 2 days post-DNP administration, 4 days post-DNP administration and 7 days post-DNP administration.
FIG. 22. CFTR Expression comparison between NHBE cells (normal human bronchial/tracheal epithelial cells), Untreated Mice and Day 2 DNP Treated Mice, and CFTR Expression comparison in Day 4 mice treated with a vehicle (DNP Alone) or drug. Day 4 data represents vector subtracted values for the PCR of CFTR.

[1] = system: luciferase DNP gene transfer; experiment: in vivo luciferase DNP gene transfer, drug dosed 2 hours before intratracheal DNP (BLI total photons and lung luciferase activity); settings: for enhancement of in vivo DNP transfection over time (BLI): 2, 3, 7 and 14 days after DNP; for enhancement of in vivo DNP transfection over time (BLI) / DNP gene delivery efficacy in vivo (BLI total photons and lung luciferase activity): roscovitine 10 mg/kg, spermine 20 mg/kg, ruxolitinib 1 mg/kg, 2 hours prior to intratracheal 100 μg luciferase DNP; for DNP gene delivery efficacy in vivo (BLI total photons and lung luciferase activity): 14 days post DNP administration; for luciferase gene transfer in vivo, Bioluminescent Image (BLI) analysis: day 2, day 3, day 7 and day 14, compared to DNP Alone group; for total photons over a 10 min BLI exposure from the chest ROI, difference from the DNP alone group: day 14 after DNP, spermine 20 mg/kg (P<0.5), roscovitine 10 mg/kg (p<0.01), dosed 2 hours prior to intratracheal 100 μg luciferase DNP; for luciferase gene transfer in vivo, BLI image analysis and luciferase activity assay: versus DNP alone
Procedure: Total photon measurements were taken from the chest of each mouse, ROI outlined in red, and background luminescence was subtracted from mice saline control mice (not shown). B. Total photons collected over a 10 min BLI exposure from the ROI at each day.
All data was collected 14 days post DNP administration. […] The ROI, outlined in red, was consistently drawn on each mouse and used to quantify total photons in each mouse. B. Total photons collected over a 10 min BLI exposure from the ROI. Mice that received saline instead of DNPs (not shown) were used to subtract background from the experimental mice. […] Lungs from mice used in B were harvested immediately after BLI imaging and assayed for luciferase activity. (n>10 for each group, p<0.05, p<0.01, p<0.001)
All data was collected 14 days post DNP administration. […] The ROI, outlined in red, was consistently drawn on each mouse and used to quantify total photons in each mouse. B. Total photons collected over a 10 min BLI exposure from the ROI. Mice that received saline instead of DNPs (not shown) were used to subtract background from the experimental mice. […] Lungs from mice used in B were harvested immediately after BLI imaging and assayed for luciferase activity. (n>10 for each group, mean and SEM shown, p<0.05, p<0.01, p<0.001)

HeLa cells = experiment: luciferase DNP transfection of HeLa cells with drug given before, with or after the DNPs (luciferase activity, light-based assay); type: cell-based; settings: drug four hours before, at the same time as, or four hours after luciferase DNPs, versus DNP alone
Procedure: HeLa cells were transfected with luciferase DNPs either four hours after cells were treated with drug, at the same time as cells were treated with drug, or four hours before cells were treated with drug; DNP alone, RX001 (roscovitine), RX011 (spermine), and RX008 (ruxolitinib).
HeLa cells were transfected with luciferase DNPs either four hours after cells were treated with drug, at the same time as cells were treated with drug, or four hours before cells were treated with drug, DNP alone, RX012 (doxorubicin), RX013 (acetohexamide), and RX014 (sildenafil citrate).
FIG. 12. […] HeLa cell were treated for four hours prior to luciferase DNP administration. Drugs were obtained from a blinded plate. Labels on graphs indicate drugs position on blinded plate. *: p<0.05, **: p<0.01, ***: p<0.001, ***: p<0.0001, compared to DNP Alone group.
(§1) FIG. 17 depicts pharmacological manipulations before, after, and during DNP transfection. Hela cells were given roscovitine (1 μM, CDK1 inhibitor), spermine (1 μM, CKII activator), or ruxolitinib (0.1 μM, JAK inhibitor) at various times during transfection of luciferase DNPs. A. Hela cells were dosed with drugs for 4 hours, washed, and then given luciferase DNPs for 24 hours. B. Hela cells were simultaneously given drug and luciferase DNPs for 24 hr. C. Hela cells were given luciferase DNPs for 4 hours, washed, and then given drug for 24 hr. All cells were then lysed and analyzed for luciferase activity with a light-based assay. (n=8 for each group, signifies p<0.05 and signifies p<0.001).
as §1, with “Hela” for “FIG. 17 depicts pharmacological manipulations before, after, and during DNP transfection. Hela”, “group, mean and SEM shown,” for “group,”, “p<0.001)” for “p<0.001).”

| SMILES | gene transfer of hCFTR (hCFTR gene transfer) | enhancement of in vivo DNP transfection over time (BLI) [1] | DNP gene delivery efficacy in vivo (BLI total photons and lung luciferase activity) [1] | luciferase gene transfer in vivo, Bioluminescent Image (BLI) analysis [1] | total photons over a 10 min BLI exposure from the chest ROI, difference from the DNP alone group [1] | luciferase gene transfer in vivo, BLI image analysis and luciferase activity assay [1] | gene transfer of luciferase in vitro (HeLa cells) |
| --- | --- | --- | --- | --- | --- | --- | --- |
| CC[C@H](CO)Nc1nc(NCc2ccccc2)c2ncn(C(C)C)c2n1 [RX001, Roscovitine] | enhanced | maintained over time | enhancement | enhances | significantly different | enhances | enhanced |
| N#CC[C@H](C1CCCC1)n1cc(-c2ncnc3[nH]ccc23)cn1 [RX008, Ruxolitinib] | enhanced | maintained over time | enhancement | enhances |  | enhances | enhanced |
| NCCCNCCCCNCCCN [RX011, Spermine] |  | maintained over time | enhancement | enhances | significantly different | enhances | enhanced |
| COc1cccc2c1C(=O)c1c(O)c3c(c(O)c1C2=O)C[C@@](O)(C(=O)CO)C[C@@H]3O[C@H]1C[C@H](N)[C@H](O)[C@H](C)O1 [RX012, Doxorubicin] |  |  |  |  |  |  | enhanced |
| CC(=O)c1ccc(S(=O)(=O)NC(=O)NC2CCCCC2)cc1 [RX013, Acetohexamide] |  |  |  |  |  |  | enhanced |
| CCCc1nn(C)c2c(=O)nc(-c3cc(S(=O)(=O)N4CCN(C)CC4)ccc3OCC)[nH]c12 [RX014, Sildenafil] |  |  |  |  |  |  | enhanced |
